Measured values as given in patent US9969758B2, “Antimicrobial compounds” (BIOMERIEUX, priority 2014, dated 2018).
Converted amounts (≈) assume the structure as drawn.

Experiments:
[1] = test system: Staphylococci epidermidis NCTC 11047; experiment: MIC by agar dilution, single strains; type: cell-based; settings: 22 hours of incubation, read-out: Minimum inhibitory concentration (MIC)
Protocol: (§1) Determining the minimum inhibitory concentrations (MIC). All the MICs were determined using an agar dilution method. This required use of a medium without a defined antagonist (peptone-free), prepared as described previously with the inclusion of 2% horse blood lysed with saponin, 25.0 μg/mL of NAD and 25.0 μg/mL of hemin [17]. The compounds tested were dissolved in sterile deionised water and incorporated into the agar medium in a concentration range of 0.0031 to 8.0 μg/mL (0.016 to 32 μg/mL for gram-positive bacteria). All the isolates were prepared at a density equivalent to 0.5 McFarland units in sterile deionised water using a densitometer (approximately 1.5×10^8 CFU/mL), and then diluted to 1 for 15. An aliquot of 1 μL of each diluted suspension was then placed onto plates with a multispot inoculator to give the final recommended inoculation of 10 000 CFU/spot. The MICs of fosfomycin were determined by the same method, except that the IsoSensitest medium (Oxoid, Basingstoke, United Kingdom) was used, plus 25.0 μg/mL of glucose-6-phosphate (Sigma, Poole, United Kingdom) and an extended range of fosfomycin concentrations. All the dishes (including the antimicrobial-free controls) were incubated for 22 hours at 37° C. All the tests were performed on at least two independent replicates in order to examine the reproducibility.

[2] = test system: Serratia marcescens NCTC 10211; experiment: MIC by agar dilution, single strains; type: cell-based; settings: NCTC10211, 22 hours of incubation, read-out: Minimum inhibitory concentration (MIC)
Protocol: as §1

[3] = test system: Burkholderia cepacia ATCC 25416; experiment: MIC by agar dilution, single strains; type: cell-based; settings: ATCC25416, 22 hours of incubation, read-out: Minimum inhibitory concentration (MIC)
Protocol: as §1

[4] = test system: Enterobacter cloacae NCTC 11936; experiment: MIC by agar dilution, single strains; type: cell-based; settings: NCTC11936, 22 hours of incubation, read-out: Minimum inhibitory concentration (MIC)
Protocol: as §1

[5] = test system: Acinetobacter baumannii ATCC 19606; experiment: MIC by agar dilution, single strains; type: cell-based; settings: ATCC19606, 22 hours of incubation, read-out: Minimum inhibitory concentration (MIC)
Protocol: as §1

[6] = test system: Salmonella typhimurium NCTC 74; experiment: MIC by agar dilution, single strains; type: cell-based; settings: Salmonella enterica, 22 hours of incubation, read-out: Minimum inhibitory concentration (MIC)
Protocol: as §1

[7] = test system: Enterococcus faecalis NCTC 775; experiment: MIC by agar dilution, single strains; type: cell-based; settings: NCTC775, 22 hours of incubation, read-out: Minimum inhibitory concentration (MIC)
Protocol: as §1

[8] = test system: Escherichia coli NCTC 12241; experiment: MIC by agar dilution, single strains; type: cell-based; settings: NCTC12241, 22 hours of incubation, read-out: Minimum inhibitory concentration (MIC)
Protocol: as §1

[9] = test system: Klebsiella pneumoniae NCTC 9528; experiment: MIC by agar dilution, single strains; type: cell-based; settings: NCTC9528, 22 hours of incubation, read-out: Minimum inhibitory concentration (MIC)
Protocol: as §1

[10] = test system: Providencia rettgeri NCTC 7475; experiment: MIC by agar dilution, single strains; type: cell-based; settings: NCTC7475, 22 hours of incubation, read-out: Minimum inhibitory concentration (MIC)
Protocol: as §1

[11] = test system: Enterococcus faecium NCTC 7171; experiment: MIC by agar dilution, single strains; type: cell-based; settings: NCTC7171, 22 hours of incubation, read-out: Minimum inhibitory concentration (MIC)
Protocol: as §1

[12] = test system: Escherichia coli NCTC 10418; experiment: MIC by agar dilution, single strains; type: cell-based; settings: NCTC10418, 22 hours of incubation, read-out: Minimum inhibitory concentration (MIC)
Protocol: as §1

[13] = test system: Pseudomonas aeruginosa NCTC 10662; experiment: MIC by agar dilution, single strains; type: cell-based; settings: NCTC10662, 22 hours of incubation, read-out: Minimum inhibitory concentration (MIC)
Protocol: as §1

[14] = test system: Yersinia enterocolitica NCTC 11176; experiment: MIC by agar dilution, single strains; type: cell-based; settings: NCTC11176, 22 hours of incubation, read-out: Minimum inhibitory concentration (MIC)
Protocol: as §1

[15] = test system: Staphylococcus aureus NCTC 11939 (SARM); experiment: MIC by agar dilution, single strains; type: cell-based; settings: NCTC11939, 22 hours of incubation, read-out: Minimum inhibitory concentration (MIC)
Protocol: as §1

[16] = test system: Listeria monocytogenes NCTC 11994; experiment: MIC by agar dilution, single strains; type: cell-based; settings: NCTC11994, 22 hours of incubation, read-out: Minimum inhibitory concentration (MIC)
Protocol: as §1

[17] = test system: Staphylococcus aureus NCTC 6571; experiment: MIC by agar dilution, single strains; type: cell-based; settings: NCTC6571, 22 hours of incubation, read-out: Minimum inhibitory concentration (MIC)
Protocol: as §1

[18] = test system: Salmonella enteritidis NCTC 6676; experiment: MIC by agar dilution, single strains; type: cell-based; settings: Salmonella enterica, 22 hours of incubation, read-out: Minimum inhibitory concentration (MIC)
Protocol: as §1

K. pneumoniae (87) = experiment: MIC by agar dilution; type: cell-based, Klebsiella pneumoniae; settings: Klebsiella pneumoniae
Source text: (§2) Bacterial isolates. […] These included Citrobacter freundii (n=5), other species of Citrobacter (n=4), Enterobacter aerogenes (n=1), Enterobacter cloacae (n=27), Escherichia coli (n=53), Klebsiella oxytoca (n=5), Klebsiella pneumoniae (n=87), Kluyvera spp (n=1), Proteus mirabilis (n=8), Providencia rettgeri (n=2), Salmonella spp (n=3), and Serratia marcescens (n=1). Among these 197 isolates, there were 128 (65%) carbapenemase producers, including; 87 with NDM-1, 9 with IMP, 11 with KPC, 14 with OXA-48 and 7 with VIM. The majority of the carbapenemase producers jointly produced broad-spectrum β-lactamases (BSBL) or cephalosporinases (AmpC β-lactamases), but the latter are not documented for the sake of clarity.
as §1

AmpC (22) = experiment: MIC by agar dilution; type: cell-based, Enterobacteriaceae
Source text: as §2, §1

All S. aureus (50) = experiment: MIC by agar dilution; type: cell-based, Staphylococcus aureus
Source text: (§3) A collection of 50 isolates of Staphylococci aureus included 36 strains of methicillin-resistant S. aureus (MRSA) frequently encountered in Europe, including strains isolated in Belgium, Finland, France, Germany and the United Kingdom. Another strain of MRSA, NCTC 11939, was included as a control, as well as a methicillin-sensitive control (NCTC 6571). Twelve other isolates of methicillin-sensitive Staphylococcus aureus (MSSA) recently collected from blood cultures were also included. Finally, 50 isolates of enterococci included two control strains (Enterococcus faecalis NCTC 755 and Enterococcus faecium NCTC 7171) and 48 isolates originating from clinical samples obtained from at least three different hospitals. The clinical isolates included E. faecalis (n=10), E. faecium (n=33), Enterococcus casseliflavus (n=3), Enterococcus gallinarum (n=2).
as §1

E. coli (53) = experiment: MIC by agar dilution; type: cell-based, Escherichia coli; settings: Escherichia coli
Source text: as §2, §1

E. faecalis (11) = experiment: MIC by agar dilution; type: cell-based, Enterococcus faecalis
Source text: as §3, §1

Enterobacteriaceae (197) = experiment: MIC by agar dilution; type: cell-based
Source text: as §2, §1

[19] = test system: carbapenemase-producing Enterobacteriaceae; experiment: MIC by agar dilution; type: cell-based
Source text: as §2, §1

[20] = test system: Enterobacteriaceae with a broad-spectrum β-lactamase; experiment: MIC by agar dilution; type: cell-based
Source text: as §2, §1

E. cloacae (27) = experiment: MIC by agar dilution; type: cell-based, Enterobacter cloacae; settings: Enterobacter cloacae
Source text: as §2, §1

[21] = test system: methicillin-sensitive Staphylococcus aureus; experiment: MIC by agar dilution; type: cell-based
Source text: as §3, §1

[22] = test system: glycopeptide-resistant enterococci; experiment: MIC by agar dilution; type: cell-based
Source text: as §3, §1

[23] = test system: methicillin-resistant Staphylococcus aureus; experiment: MIC by agar dilution; type: cell-based
Source text: as §3, §1

All Enterococci (50) = experiment: MIC by agar dilution; type: cell-based
Source text: as §3, §1

E. faecium (34) = experiment: MIC by agar dilution; type: cell-based, Enterococcus faecium; settings: Enterococcus faecium
Source text: as §3, §1

[24] = read-out: Modal MIC (most frequent MIC)

CCC[C@H](N)C(=O)N[C@@H](CCl)C(=O)NC(C)P(=O)(O)O (stereo partly drawn) [compound G, L-Norvalinyl-β-chloro-L-alanyl-D/L-fosfalin]
MIC [1]: 2 µg/mL (≈ 6.07 µM) | MIC [2]: 0.5 µg/mL (≈ 1.52 µM) | MIC [3]: > 8 µg/mL | MIC [4]: 4 µg/mL (≈ 12.1 µM) | MIC [5]: > 8 µg/mL | MIC [6]: > 8 µg/mL | MIC [7]: 0.063 µg/mL (≈ 0.191 µM) | MIC [8]: 0.5 µg/mL (≈ 1.52 µM) | MIC [9]: 0.5 µg/mL (≈ 1.52 µM) | MIC [10]: > 8 µg/mL | MIC [11]: 1 µg/mL (≈ 3.03 µM) | MIC [12]: 1 µg/mL (≈ 3.03 µM) | MIC [13]: > 8 µg/mL | MIC [14]: 0.25 µg/mL (≈ 0.758 µM) | MIC [15]: > 8 µg/mL | MIC [16]: > 8 µg/mL | MIC [17]: 4 µg/mL (≈ 12.1 µM) | MIC [18]: > 8 µg/mL

N[C@@H](CCl)C(=O)N[C@@H](CCl)C(=O)O [β-Cl-Ala-β-Cl-Ala, β-chloro-L-alanyl-β-chloro-L-alanine]
MIC50 (K. pneumoniae (87)): > 8 µg/mL | MIC90 (K. pneumoniae (87)): > 8 µg/mL | MIC (K. pneumoniae (87); [24]): > 8 µg/mL | MIC50 (AmpC (22)): > 8 µg/mL | MIC90 (AmpC (22)): > 8 µg/mL | MIC (AmpC (22); [24]): > 8 µg/mL | MIC Range (All S. aureus (50); All S. aureus (50)): 0.125 to 16 µg/mL | MIC50 (All S. aureus (50); Staphylococcus aureus): 2 µg/mL (≈ 8.73 µM) | MIC90 (All S. aureus (50); Staphylococcus aureus): 4 µg/mL (≈ 17.5 µM) | MIC (All S. aureus (50); Staphylococcus aureus, read-out: Modal MIC (most frequent MIC)): 2 µg/mL (≈ 8.73 µM) | MIC50 (E. coli (53)): 8 µg/mL (≈ 34.9 µM) | MIC90 (E. coli (53)): > 8 µg/mL | MIC (E. coli (53); [24]): 8 µg/mL (≈ 34.9 µM) | MIC Range (E. faecalis (11); E. faecalis (11)): 4 to 16 µg/mL | MIC50 (E. faecalis (11); Enterococcus faecalis): 8 µg/mL (≈ 34.9 µM) | MIC90 (E. faecalis (11); Enterococcus faecalis): 16 µg/mL (≈ 69.8 µM) | MIC (E. faecalis (11); Enterococcus faecalis, read-out: Modal MIC (most frequent MIC)): 8 µg/mL (≈ 34.9 µM) | MIC50 (Enterobacteriaceae (197)): > 8 µg/mL | MIC90 (Enterobacteriaceae (197)): > 8 µg/mL | MIC (Enterobacteriaceae (197); [24]): > 8 µg/mL | MIC50 [19]: > 8 µg/mL | MIC90 [19]: > 8 µg/mL | MIC [19, 24]: > 8 µg/mL | MIC50 [20]: > 8 µg/mL | MIC90 [20]: > 8 µg/mL | MIC [20, 24]: > 8 µg/mL | MIC50 (E. cloacae (27)): > 8 µg/mL | MIC90 (E. cloacae (27)): > 8 µg/mL | MIC (E. cloacae (27); [24]): > 8 µg/mL | MIC Range ([21]; MSSA (13)): 0.5 to 2 µg/mL | MIC50 ([21]; Staphylococcus aureus, MSSA): 1 µg/mL (≈ 4.37 µM) | MIC90 ([21]; Staphylococcus aureus, MSSA): 2 µg/mL (≈ 8.73 µM) | MIC ([21]; Staphylococcus aureus, MSSA, read-out: Modal MIC (most frequent MIC)): 1 µg/mL (≈ 4.37 µM) | MIC50 [22]: 16 µg/mL (≈ 69.8 µM) | MIC90 [22]: > 32 µg/mL | MIC [22, 24]: 16 µg/mL (≈ 69.8 µM) | MIC Range ([23]; MRSA (37)): 0.125 to 16 µg/mL | MIC50 ([23]; Staphylococcus aureus, MRSA): 2 µg/mL (≈ 8.73 µM) | MIC90 ([23]; Staphylococcus aureus, MRSA): 4 µg/mL (≈ 17.5 µM) | MIC ([23]; Staphylococcus aureus, MRSA, read-out: Modal MIC (most frequent MIC)): 2 µg/mL (≈ 8.73 µM) | MIC50 (All Enterococci (50)): 16 µg/mL (≈ 69.8 µM) | MIC90 (All Enterococci (50)): 32 µg/mL (≈ 140 µM) | MIC Range (All Enterococci (50); All Enterococci (50)): 2 to 16 µg/mL | MIC (All Enterococci (50); [24]): 16 µg/mL (≈ 69.8 µM) | MIC50 (E. faecium (34)): 16 µg/mL (≈ 69.8 µM) | MIC90 (E. faecium (34)): 32 µg/mL (≈ 140 µM) | MIC (E. faecium (34); [24]): 16 µg/mL (≈ 69.8 µM)
